Where two headings read alike, the source gives them in different places.
Tests used:
[1] = In vivo pharmacokinetic interaction study in Sprague-Dawley rats; settings: for AUC(0-inf) / AUC(0-t) / Cmax / Tmax / half-life / CL/F: male, Sprague-Dawley, rat, plasma, po, 25 mg/kg, rat plasma, n = 5, mean ± S.D.; for CL/F: read-out: CLz/F (converted)
Protocol: Protein precipitation was used to remove proteins from plasma and extract the test materials. To this end, 100 µL of plasma sample was combined with 10 µL of the IS working solution (400 ng/mL) and 300 µL of acetonitrile. The mixture was then centrifuged at 13,000 rpm for 10 min at 4 °C to ensure complete protein precipitation. After centrifugation, the supernatant was carefully collected and transferred into a sample vial. Finally, 2.0 µL of sample was injected for UPLC-MS/MS analysis.
The study was approved by Institutional Animal Care and Use Committee of the First Affiliated Hospital of Wenzhou Medical University (Approval No. WYYY-IACUC-AEC-2024-079). The experimental animals were cared in accordance with the Guide for the Care and Use of Laboratory Animals issued by the National Research Council, complying with the ARRIVE guidelines. The 6–8 weeks old Sprague-Dawley rats were obtained from Vital River Laboratory Animal Technology Co., Ltd (China, Zhejiang). The rats were housed at 25 °C and given a 14-day acclimation period under experimental conditions to reduce potential variability.
Due to the similarity between their hepatic enzyme system and humans, SD male rats are widely used in pharmacokinetics ([Riccardi et al., 2018]; [Martignoni, Groothuis & De Kanter, 2006]). A total of 10 SD male rats (200 ± 20 g) were randomly divided into two groups (n = 5): Group A (control group) and Group B (experimental group). The animals were fasted for 12 h prior to the experiment but had free access to water. […] And the concentration of tropifexor was determined to be 20 µg/kg based on body surface area conversion from human administered doses in prior literature ([Chen et al., 2022a]). Experimental group was received of tropifexor (20 µg/kg) via oral gavage, whereas control group was administered of an equivalent volume of corn oil. […] Blood samples were then collected at different time points at 0.5, 1, 1.5, 2, 4, 8, 12, 24, and 48 h after administration. Each blood sample (approximately 0.3 mL) was taken from the caudal veins, and was collected into 1.5 mL heparinized polyethylene tubes. After centrifuged at 13,000 rpm for 10 min, the supernatant was collected and stored at −80 °C. The plasma sample was treated according to 2.4 Pre-treatment of samples before UPLC-MS/MS analysis.
Pharmacokinetic parameters were calculated using the Drug and Statistics (DAS) software (version 3.0 software, Mathematical Pharmacology Professional Committee of China, Shanghai, China) with non-compartment model analyses based on the input data of drug administration route, dosage, drug concentration, and time.

[2] = Stability of analytes in rat plasma (UPLC-MS/MS method validation); type: in vitro ADME; settings: n = 5
Protocol: The sensitivity of the method was reflected by the lower limit of quantification (LLOQ), which was also the lowest quantitative point. The LLOQ and three QC samples were obtained by the same method. […] All chemicals and solutions were stored at −80 °C for further use. Protein precipitation was used to remove proteins from plasma and extract the test materials. […] The mixture was then centrifuged at 13,000 rpm for 10 min at 4 °C to ensure complete protein precipitation. After centrifugation, the supernatant was carefully collected and transferred into a sample vial. Finally, 2.0 µL of sample was injected for UPLC-MS/MS analysis. The calibration curve, selectivity, accuracy, precision, recovery, matrix effect, and stability of the method established in this study were validated according to the FDA Bioanalytical Method Validation Guidance and the guidelines from the National Medical Products Administration (NMPA). Detailed information regarding the evaluation could be found in the Results and Discussion sections.

[3] = set-up: method as in Johnson et al., 2015; settings: humans; ref Johnson et al., 2015; cited from earlier work
[4] = cited from earlier work
[5] = set-up: method as in Xu et al., 2015; settings: compared to a single oral dose of 150 mg crizotinib; ref Xu et al., 2015; cited from earlier work
[6] = set-up: method as in Chen, Li & Chen, 2022; settings: PBPK model, cancer patients; ref Chen, Li & Chen, 2022; cited from earlier work
RLM = system: RLM; set-up: method as in Wang et al., 2024; settings: read-out: Km of crizotinib, ref Wang et al., 2024; cited from earlier work
[7] = set-up: method as in Qiu et al., 2016; settings: ref Qiu et al., 2016, cited from earlier work
[8] = set-up: method as in Ou, 2011; settings: humans, single oral dose of 250 mg/d; ref Ou, 2011; cited from earlier work
in vitro [9] = settings: rat, rat liver microsomes, pH 7.4
Protocol: (§1) Before measurement, the mixture without NADPH was pre-incubated at 37 °C for 5 min. Then, one mM of NADPH was given to incubate the reaction in a water bath with shaking at a rate of 200 times/min. After 30 min, the reaction was terminated by cooling at −80 °C. Next, 300 µL acetonitrile and 10 µL of the IS working solution were added to the mixture. After shaking for 2 min, the supernatant was obtained by centrifugation at 13,000 rpm for 10 min and subjected to UPLC-MS/MS analysis.
(§2) The Km, IC50, the Lineweaver-Burk plot and the mean plasma concentration–time curve were calculated and plotted using GraphPad Prism 9.0 software (GraphPad Software Inc., California, United States).

in vitro [10] = settings: human, human liver microsomes, pH 7.4, Km of crizotinib, HLM 0.3 mg/mL, 1 mM NADPH, 0.1–50 µM crizotinib
[11] = system: rat liver microsomes (RLM); assay: Enzyme kinetics of crizotinib in rat liver microsomes (Michaelis-Menten)
Protocol: as §1, §2

[12] = system: crizotinib metabolism in rat liver microsomes (RLM); assay: Inhibition of crizotinib metabolism by tropifexor in RLM (IC50, Lineweaver-Burk); type: in vitro ADME
[13] = biological target: crizotinib metabolism in human liver microsomes (HLM) (Homo sapiens, UniProt P08684); assay: Inhibition of crizotinib metabolism by tropifexor in HLM (IC50, Lineweaver-Burk); type: in vitro ADME
crizotinib metabolism in human liver microsomes (HLM), sequence (P08684 2-503): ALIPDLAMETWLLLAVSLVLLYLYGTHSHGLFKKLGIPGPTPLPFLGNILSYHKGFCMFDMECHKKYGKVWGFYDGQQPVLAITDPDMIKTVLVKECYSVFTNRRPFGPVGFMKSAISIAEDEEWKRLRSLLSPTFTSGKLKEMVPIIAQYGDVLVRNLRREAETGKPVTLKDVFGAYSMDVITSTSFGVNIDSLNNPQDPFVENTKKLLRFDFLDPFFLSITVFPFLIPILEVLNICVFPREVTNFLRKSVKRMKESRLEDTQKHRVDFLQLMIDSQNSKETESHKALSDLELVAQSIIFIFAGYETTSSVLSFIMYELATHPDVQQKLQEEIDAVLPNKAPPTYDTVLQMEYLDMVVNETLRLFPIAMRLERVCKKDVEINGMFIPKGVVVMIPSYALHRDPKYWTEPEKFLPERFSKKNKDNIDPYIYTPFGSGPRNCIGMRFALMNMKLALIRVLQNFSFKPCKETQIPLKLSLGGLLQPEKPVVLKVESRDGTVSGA

[14] = set-up: method as in Badman et al., 2020; settings: healthy volunteers, single dose of up to three mg; ref Badman et al., 2020; cited from earlier work
[15] = set-up: method as in Chen et al., 2022b; settings: ref Chen et al., 2022b; cited from earlier work
[16] = group Crizotinib + Tropifexor: oral tropifexor 20 µg/kg 30 min before oral crizotinib 25 mg/kg
[17] = group Crizotinib alone: single oral crizotinib 25 mg/kg
[18] = rats, compared to control group

C[C@@H](Oc1cc(-c2cnn(C3CCNC(=O)C3)c2)cnc1N)c1c(Cl)ccc(F)c1Cl (some centres unmarked) [2-Keto crizotinib]
AUC(0-inf) [1, 16]: 880 ± 269 ng·h/mL | AUC(0-t) [1, 16]: 877 ± 268 ng·h/mL | Cmax [1, 16]: 74.3 ± 26.8 ng/mL | Tmax [1, 16]: 8.8 ± 1.79 h | half-life [1, 16]: 5.78 ± 1.79 h | CL/F [1, 16]: 507 mL/min/kg | AUC(0-inf) [1, 17]: 605 ± 99.1 ng·h/mL | AUC(0-t) [1, 17]: 603 ± 97.7 ng·h/mL | Cmax [1, 17]: 51 ± 14.4 ng/mL | Tmax [1, 17]: 8 h | half-life [1, 17]: 4.82 ± 1.18 h | CL/F [1, 17]: 704 mL/min/kg | decrease of CLz/F on co-administration of tropifexor [1, 18]: 27.9% | Stability RE ([2]; 2 ng/mL, 10 °C (4 h)): 2.2% | Stability RE ([2]; 2 ng/mL, 21 days at −80 °C): 14.7% | Stability RE ([2]; 2 ng/mL, room temperature (3 h)): 9.9% | Stability RE ([2]; 2 ng/mL, three freeze-thaw (−80 °C/RT)): 11.9% | Stability RE ([2]; 40 ng/mL, 10 °C (4 h)): 0.6% | Stability RE ([2]; 40 ng/mL, 21 days at −80 °C): 5.2% | Stability RE ([2]; 40 ng/mL, room temperature (3 h)): 2.0% | Stability RE ([2]; 40 ng/mL, three freeze-thaw (−80 °C/RT)): −0.7% | Stability RE ([2]; 80 ng/mL, 10 °C (4 h)): −0.6% | Stability RE ([2]; 80 ng/mL, 21 days at −80 °C): 5.9% | Stability RE ([2]; 80 ng/mL, room temperature (3 h)): 3.0% | Stability RE ([2]; 80 ng/mL, three freeze-thaw (−80 °C/RT)): −0.7%

C[C@@H](Oc1cc(-c2cnn(C3CCNCC3)c2)cnc1N)c1c(Cl)ccc(F)c1Cl [crizotinib, Crizotinib]
AUC(0-inf) [1, 16]: 5670 ng·h/mL | AUC(0-t) [1, 16]: 5560 ng·h/mL | Cmax [1, 16]: 326 ± 41 ng/mL | Tmax [1, 16]: 8.8 ± 1.79 h | half-life [1, 16]: 8.23 ± 1.65 h | CL/F [1, 16]: 76 mL/min/kg | AUC(0-inf) [1, 17]: 4140 ng·h/mL | AUC(0-t) [1, 17]: 4100 ng·h/mL | Cmax [1, 17]: 237 ± 45.3 ng/mL | Tmax [1, 17]: 8.8 ± 1.79 h | half-life [1, 17]: 6.83 ± 0.77 h | CL/F [1, 17]: 102 mL/min/kg | increase of AUC(0−t) on co-administration of tropifexor [1, 18]: 35.7% | increase of AUC(0−∞) on co-administration of tropifexor [1, 18]: 36.9% | Stability RE ([2]; 5 ng/mL, 10 °C (4 h)): 0.5% | Stability RE ([2]; 5 ng/mL, 21 days at −80 °C): −1.9% | Stability RE ([2]; 5 ng/mL, room temperature (3 h)): −9.0% | Stability RE ([2]; 5 ng/mL, three freeze-thaw (−80 °C/RT)): −8.3% | Stability RE ([2]; 120 ng/mL, 10 °C (4 h)): 5.9% | Stability RE ([2]; 120 ng/mL, 21 days at −80 °C): 4.7% | Stability RE ([2]; 120 ng/mL, room temperature (3 h)): −6.9% | Stability RE ([2]; 120 ng/mL, three freeze-thaw (−80 °C/RT)): −7.1% | Stability RE ([2]; 240 ng/mL, 10 °C (4 h)): 3.6% | Stability RE ([2]; 240 ng/mL, 21 days at −80 °C): 6.9% | Stability RE ([2]; 240 ng/mL, room temperature (3 h)): −1.6% | Stability RE ([2]; 240 ng/mL, three freeze-thaw (−80 °C/RT)): −7.4% | drug excreted unchanged in the feces [3]: approximately 63% | likelihood of crizotinib-induced hepatotoxicity, patients with pre-existing liver conditions vs without liver disease ([4]; ref Jung et al., 2018): 2.3 times | patients with elevated alanine aminotransferase (ALT) levels ([4]; standard dose of crizotinib, ref Kazandjian et al., 2014): 17% | patients with Grade 1 or 2 liver abnormalities ([4]; typically within two months of treatment, reversible, ref Revol et al., 2020): 30% | increase in AUC on co-administration with ketoconazole [5]: 2.2 fold | predicted increase of AUC when co-administered with fluconazole [6]: 58% | predicted increase of AUC when co-administered with itraconazole [6]: 79% | predicted increase of AUC when co-administered with voriconazole [6]: 84% | Km (RLM): 4.61 ± 0.28 µM | Cmax ([7]; SD rats, oral 24 mg/kg): 309 ± 39.8 ng/mL | Tmax ([7]; SD rats, oral 24 mg/kg): 2.00 ± 0.00 h | oral absolute bioavailability ([7]; rats): 68.6 ± 9.63% | time at which Cmax was observed [8]: 4 h | Km at 30 min (in vitro [9]): 1 µM | Km at 30 min (in vitro [10]): 15 µM | Vmax [11]: 0.01457 pmol/min/µg protein

O=C(O)c1cc(F)c2nc(N3[C@@H]4CC[C@H]3C[C@@H](OCc3c(-c5ccccc5OC(F)(F)F)noc3C3CC3)C4)sc2c1 [tropifexor, Tropifexor]
inhibition mechanism on crizotinib metabolism [12]: non-competitive and uncompetitive | α [12]: 0.66 | Ki ([12]; n = 3): 5.6 µM | αKi ([12]; n = 3): 3.72 µM | IC50 ([12]; read-out: IC50 of tropifexor on crizotinib metabolism, crizotinib at Km): 4.43 µM | inhibition mechanism on crizotinib metabolism [13]: competitive and non-competitive | α [13]: 2.71 | IC50 at 0.5 h ([13]; human, liver microsomes, pH 7.4, IC50 of tropifexor on crizotinib metabolism, crizotinib at Km): 4.3 µM | Ki at 0.5 h ([13]; human, liver microsomes, pH 7.4, n = 3): 4.93 µM | αKi ([13]; n = 3): 13.38 µM | safety and tolerability [14]: safe and well-tolerated | decrease in Cmax on co-administration with a CYP3A4 inhibitor [15]: 9% | decrease in Cmax on co-administration with the CYP3A4 inducer rifampin [15]: 55%
